Experimental data from patent EP4729053A1, “SOLID DISPERSION OF P2X4 INHIBITOR, AND PREPARATION METHOD THEREFOR AND USE THEREOF” (Wuhan Createrna Science and Technology Co.,Ltd., priority 2023, dated 2024).

Assays:
[1] = Pharmacokinetic study in rats, intragastric administration; type: in vivo; conditions: rat, plasma, po, Male SD rats, i.g., vehicle 5% Solutol
Method: SPF-grade male SD rats weighing 160 to 320 g were divided into 2 groups, with 3 rats per group [Source: Beijing Vital River Laboratory Animal Technology Co., Ltd., Certificate No.: 1103242011040898].
Formulation and dosing: According to the drug concentration and dosing requirements in Table 15 below, the API was accurately weighed and added to the required volume of 5% Solutol. The mixture was vortexed for 2 minutes, then sonicated for 10 minutes, and stirred for 1 hour before administration. Table 15: Formulation and dosing regimen for API pharmacokinetic study
SPF-grade male SD rats weighing 160 to 320 g were divided into 6 groups, with 3 rats per group [Source: Beijing Vital River Laboratory Animal Technology Co., Ltd., Certificate No.: 110011210113195883 (male)].
Formulation and dosing: 80 mg of the corresponding sample in the table below was accurately weighed, dispersed in the required volume of pure water, vortexed for 5 minutes, and administered intragastrically (i.g.). The experimental dosing was scaled proportionally based on animal body weight and dosing concentration.
After administration to the SD rats in each group of Experimental Preparation 1 and Experimental Preparation 2, approximately 0.2 to 0.3 mL of blood samples were collected from the orbital venous plexus at 0.167, 0.5, 1, 2, 3, 4, 6, 8, 10, and 24 hours post-dosing, and transferred to an anticoagulant EP tube (containing 4 µL of EDTA-K2, 375 mg/mL), which was gently inverted three times, stored in an ice box (no more than 30 minutes), centrifuged at 3500 × g for 10 minutes at 4°C, and plasma supernatant was transferred to a labeled EP tube. Hemolysis was observed and recorded, followed by bioanalytical testing.
Sample pretreatment: 40 µL of sample was mixed with 160 µL of acetonitrile containing 0.1% FA and 200 ng/mL mixed internal standard to precipitate proteins. The mixture was vortexed thoroughly and centrifuged at 13,000 rpm for 10 minutes at 4°C.
110 µL of the supernatant was transferred to another 96-well deep-well plate, followed by addition of 110 µL of a mixture of methanol and water (1:3, v:v) containing 0.1% FA. The mixture was shaken for 10 minutes and analyzed using an LC-MS/MS system. The system employed a Sciex Exion LC AD high-performance liquid chromatography system with an XBridge BEH C18 (2.1 × 50 mm, 2.5 µm) column for gradient elution and an AB Sciex Qtrap 4500 mass spectrometer for analysis. The mass spectrometer employed an electrospray ionization (ESI) source in positive ion mode to monitor Tolbutamide, with precursor ion to product ion transitions with mass-to-charge ratios (m/z) of 415.1→263.1 and 271.1→155, respectively.
Data were analyzed using WinNonlin (version 5.2.1, Pharsight, Mountain View, CA) with a non-compartmental model to obtain PK parameters (Cmax, Tmax, T1/2, AUClast, etc.). Table 15: Pharmacokinetic data of some solid dispersions

[2] = Solubilization test of compound 1 with surfactants in FaSSIF; type: physicochemical; conditions: for Concentration of API in vehicle: FaSSIF (pH 6.5), 37°C
Method: 50 mg of compound 1 was weighed into 5 mL of FaSSIF medium containing 5 mg of different surfactants (target concentration of API (compound 1): 10 mg/mL). The mixture was shaken at 500 rpm and 37°C. 0.5 mL each of the suspension samples was taken at 0.5 hours, 1 hour, 2 hours, and 4 hours, respectively, centrifuged at 14,000 rpm for 5 minutes, and the supernatant was diluted and analyzed by HPLC. Table 1: Solubility results of compound 1 in FaSSIF containing 10% of surfactant by weight

NS(=O)(=O)c1cc(NC(=O)Cc2ccccc2Cl)cc2nn(C(F)F)cc12 [compound 1]
AUC(0-t) ([1]; 30.00 mg/kg): 10800 ng·h/mL | Cmax ([1]; 30.00 mg/kg): 2.76 µg/mL | Tmax ([1]; 30.00 mg/kg): 0.67 h | half-life ([1]; 30.00 mg/kg): 5.31 h | AUC(0-t) ([1]; 300.00 mg/kg): 14700 ng·h/mL | Cmax ([1]; 300.00 mg/kg): 2.36 µg/mL | Tmax ([1]; 300.00 mg/kg): 1 h | half-life ([1]; 300.00 mg/kg): 13.8 h | Concentration of API in vehicle ([2]; Cremophor EL 5 mg, 0.5 h): 1574.3 µg/mL | Concentration of API in vehicle ([2]; Cremophor EL 5 mg, 1 h): 1604.3 µg/mL | Concentration of API in vehicle ([2]; Cremophor EL 5 mg, 2 h): 1538.6 µg/mL | Concentration of API in vehicle ([2]; Cremophor EL 5 mg, 4 h): 1508.2 µg/mL | Concentration of API in vehicle ([2]; Cremophor RH40 5 mg, 0.5 h): 1583.3 µg/mL | Concentration of API in vehicle ([2]; Cremophor RH40 5 mg, 1 h): 1604.5 µg/mL | Concentration of API in vehicle ([2]; Cremophor RH40 5 mg, 2 h): 1567.0 µg/mL | Concentration of API in vehicle ([2]; Cremophor RH40 5 mg, 4 h): 1539.4 µg/mL | Concentration of API in vehicle ([2]; Poloxamer 188 5 mg, 0.5 h): 115.6 µg/mL | Concentration of API in vehicle ([2]; Poloxamer 188 5 mg, 1 h): 123.3 µg/mL | Concentration of API in vehicle ([2]; Poloxamer 188 5 mg, 2 h): 104.0 µg/mL | Concentration of API in vehicle ([2]; Poloxamer 188 5 mg, 4 h): 93.9 µg/mL | Concentration of API in vehicle ([2]; Poloxamer 407 5 mg, 0.5 h): 838.4 µg/mL | Concentration of API in vehicle ([2]; Poloxamer 407 5 mg, 1 h): 860.7 µg/mL | Concentration of API in vehicle ([2]; Poloxamer 407 5 mg, 2 h): 842.0 µg/mL | Concentration of API in vehicle ([2]; Poloxamer 407 5 mg, 4 h): 796.7 µg/mL | Concentration of API in vehicle ([2]; SLS 5 mg, 0.5 h): 614.0 µg/mL | Concentration of API in vehicle ([2]; SLS 5 mg, 1 h): 622.0 µg/mL | Concentration of API in vehicle ([2]; SLS 5 mg, 2 h): 639.0 µg/mL | Concentration of API in vehicle ([2]; SLS 5 mg, 4 h): 652.0 µg/mL | Concentration of API in vehicle ([2]; Solutol HS15 5 mg, 0.5 h): 1465.9 µg/mL | Concentration of API in vehicle ([2]; Solutol HS15 5 mg, 1 h): 1501.6 µg/mL | Concentration of API in vehicle ([2]; Solutol HS15 5 mg, 2 h): 1480.7 µg/mL | Concentration of API in vehicle ([2]; Solutol HS15 5 mg, 4 h): 1456.3 µg/mL | Concentration of API in vehicle ([2]; Tween 80 5 mg, 0.5 h): 899.3 µg/mL | Concentration of API in vehicle ([2]; Tween 80 5 mg, 1 h): 893.1 µg/mL | Concentration of API in vehicle ([2]; Tween 80 5 mg, 2 h): 888.5 µg/mL | Concentration of API in vehicle ([2]; Tween 80 5 mg, 4 h): 886.6 µg/mL | Concentration of API in vehicle ([2]; VE-TPGS 5 mg, 0.5 h): 2113.7 µg/mL | Concentration of API in vehicle ([2]; VE-TPGS 5 mg, 1 h): 2122.7 µg/mL | Concentration of API in vehicle ([2]; VE-TPGS 5 mg, 2 h): 2089.3 µg/mL | Concentration of API in vehicle ([2]; VE-TPGS 5 mg, 4 h): 2077.5 µg/mL | Concentration of API in vehicle ([2]; no surfactant, 0.5 h): 33.9 µg/mL | Concentration of API in vehicle ([2]; no surfactant, 1 h): 22.9 µg/mL | Concentration of API in vehicle ([2]; no surfactant, 2 h): 15.2 µg/mL | Concentration of API in vehicle ([2]; no surfactant, 4 h): 14.9 µg/mL | solubility of compound 1 ([2]; with surfactants SLS, Cremophor EL, Cremophor RH40, VE-TPGS, Tween 80, Poloxamer 407, and Solutol HS15): significantly improved
